Each structure is given as a SMILES string.

For this experiment, the target named is T1, Dimer of Gag-Pol polyprotein [489-587] (Human immunodeficiency virus 1, UniProt P12497).
T1 construct: 489-587
Put plainly: Protease Inhibition Assay. As to conditions: pH 5.5; 30 °C. On the procedure:
The IC50 values for the compounds were determined using purified HIV-1 Protease. Inhibition of the cleavage of the peptide H-Val-Ser-Gln-Asn-(L-beta-napthylalanine)-Pro-Ile-Val-OH was assessed at 30 °C, pH = 5.5 with [Enzyme] = 30 pM for 1 h, using HPLC with UV detection for quantification of the products. For the IC50 data a substrate concentration of 0.4 mg/mL was used, and data was fit to a four parameter sigmoidal equation.
The molecule `C[C@@H]1OCC[C@@H]1OC(=O)N[C@@H](Cc1ccccc1)[C@H](O)CN1C[C@H]2CCCC[C@H]2C[C@H]1C(=O)NC(C)(C)C` [(2S,3S)-2-methyloxolan-3-yl N-[(2S,3R)-4-[(3S,4aS,8aS)-3-(tert-butylcarbamoyl)-decahydroisoquinolin-2-yl]-3-hydroxy-1-phenylbutan-2-yl]carbamate] yielded an IC50 of 52.4 nM.

`C[C@H]1OCC[C@H]1OC(=O)N[C@@H](Cc1ccccc1)[C@H](O)CN1C[C@H]2CCCC[C@H]2C[C@H]1C(=O)NC(C)(C)C` [Isoquinoline furanyl urethane analog] registered an IC50 of 169 nM.

On to `C[C@H]1[C@@H](OC(=O)N[C@@H](Cc2ccccc2)[C@H](O)CN2C[C@H]3CCCC[C@H]3C[C@H]2C(=O)NC(C)(C)C)CCS1(=O)=O` [N-tert-butyldecahydro-2-[2(R)-hydroxy-4-phenyl-3(S)-[[[[2 (S)-methyl-(3 S)-l , l-dioxotetrahydrothiophene-3-yl]-oxy]carbonyl]amino]butyl]-(4aS,8aS)-isoquinoline-3(S)-carboxamide], for which half-maximal inhibition (IC50) was put at 11.4 nM.

`C[C@@H]1[C@H](OC(=O)N[C@@H](Cc2ccccc2)[C@H](O)CN2C[C@H]3CCCC[C@H]3C[C@H]2C(=O)NC(C)(C)C)CCS1(=O)=O` [N-tert-butyldecahydro-2-[2(R)-hydroxy-4-phenyl-3(S)-[[[[4 (S)-methyl-(3 R)-l , l-dioxotetrahydrothiophene-3-yl]-oxy]carbonyl]amino]butyl]-(4aS,8aS)-isoquinoline-3(S)-carboxamide] yielded a half-inhibitory concentration (IC50) of 22.3 nM.

The term IC50 denotes the concentration at which inhibition is half-maximal.

Source of the values: BindingDB's records for doi:10.1021/jm00034a016 (Merck Research Laboratories, 1994).
